# Tests used:
# [1] = biological target: T1, C-C chemokine receptor type 5 (Homo sapiens, UniProt P51681); test: (§1) Ability to displace [125I]- labeled MIP-1alpha from CCR5 receptor expressed on CHO cell membrane; type: cell membranes
# Target sequence in this assay (P51681 whole entry): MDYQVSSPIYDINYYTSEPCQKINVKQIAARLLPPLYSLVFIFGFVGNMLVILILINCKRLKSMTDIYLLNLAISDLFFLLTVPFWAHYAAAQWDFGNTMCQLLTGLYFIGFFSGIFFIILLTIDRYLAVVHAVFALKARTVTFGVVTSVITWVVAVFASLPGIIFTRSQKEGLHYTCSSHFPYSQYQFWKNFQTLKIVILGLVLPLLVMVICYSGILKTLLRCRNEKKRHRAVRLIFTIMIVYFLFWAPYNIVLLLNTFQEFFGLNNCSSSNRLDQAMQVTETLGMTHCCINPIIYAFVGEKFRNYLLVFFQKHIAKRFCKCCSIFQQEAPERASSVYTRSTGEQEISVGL
# [2] = tested on: Human immunodeficiency virus 1; test: In vitro antiviral activity against HIV-1 (BAL) in HeLa cells.; type: functional
# [3] = Plasma clearance was evaluated in rat; type: ADME, organism-based; conditions: read-out: Clp
# [4] = Oral bioavailability; type: ADME, organism-based; conditions: rat, in vivo
# [5] = Half life was evaluated in rat; type: ADME, organism-based; conditions: in vivo
# [6] = Inhibitory concentration by Peripheral blood mononuclear cells assay; type: functional; conditions: Homo sapiens
# [7] = Oral bioavailability in Rhesus monkey; type: ADME, organism-based, Macaca mulatta; conditions: in vivo
# [8] = Oral bioavailability in rat; type: ADME, organism-based; conditions: in vivo
# [9] = Inhibitory concentration measured by Peripheral blood mononuclear cells (BAL) viral assay; type: functional; conditions: Homo sapiens
# [10] = Half life was evaluated in dog; type: ADME, organism-based, Canis lupus familiaris; conditions: in vivo
# [11] = Volume of distribution was evaluated in dog; type: ADME, organism-based, Canis lupus familiaris; conditions: in vivo, read-out: Vdss
# [12] = Volume of distribution was evaluated in rat; type: ADME, organism-based; conditions: in vivo, read-out: Vdss
# [13] = Plasma clearance was evaluated in rhesus; type: ADME, organism-based; conditions: cercopithecidae, read-out: Clp
# [14] = Half life was evaluated in rhesus; type: ADME; conditions: cercopithecidae, in vivo
# [15] = Volume of distribution was evaluated in rhesus; type: ADME, organism-based; conditions: cercopithecidae, in vivo; read-out: Vdss
# [16] = Plasma clearance was evaluated in dog; type: ADME, organism-based, Canis lupus familiaris; conditions: read-out: Clp
# [17] = Oral bioavailability in dog; type: ADME, organism-based, Canis lupus familiaris; conditions: in vivo
# [18] = Inhibitory concentration measured by peripheral blood mononuclear cells (BAL) viral assay; type: functional, Homo sapiens
# [19] = tested on: HeLa; test: Inhibitory concentration obtained in the HeLa cell anti infectivity assay versus BAL strain; type: functional; conditions: Homo sapiens
# [20] = biological target: T1, C-C chemokine receptor type 5; test: as §1; type: cell membranes; remark: listed apart in the source
# Target sequence in this assay (P51681 whole entry, looked up): as the sequence (P51681 whole entry) above
# [21] = Human immunodeficiency virus 1, HeLa
Structure (SMILES),IC50 [1] [nM],"IC90 [2, 21] [nM]",clearance [3] [mL/min/kg],half-life [5] [h],also measured
O=C(O)[C@@H](CC1CC1)N1C[C@H](CN2CCC(CCC3(c4ccc(F)cc4)OCCO3)CC2)[C@@H](c2cccc(F)c2)C1,3.7,100,–,–,–
O=C(O)[C@@H](CC1CCC1)N1C[C@H](CN2CCC(CC[S+]([O-])c3ccc(F)cc3)CC2)[C@@H](c2cccc(F)c2)C1 (stereo in doubt; 30),0.5,–,–,–,IC90 [2]: 33 nM
O=C(O)C(CCC1CCN(C[C@H]2CN([C@H](CC3CC3)C(=O)O)C[C@@H]2c2cccc(F)c2)CC1)c1ccc(F)cc1 (stereo partly drawn),51,–,–,–,–
COP(=O)(CCC1CCN(C[C@H]2CN([C@H](CC3CC3)C(=O)O)C[C@@H]2c2cccc(F)c2)CC1)c1ccccc1 (stereo partly drawn),19,–,–,–,–
CC(C)[C@H](C(=O)O)N1C[C@H](CN2CCC(CCC(F)(F)c3ccc(F)cc3)CC2)[C@@H](c2cccc(F)c2)C1,0.5,33,–,–,–
O=C(O)[C@@H](CC1CCC1)N1C[C@H](CN2CCC(CCCc3ccc(F)cc3)CC2)[C@@H](c2cccc(F)c2)C1,0.8,2,32,3.4,bioavailability [4]: 16%
COC(=O)C(CCC1CCN(C[C@H]2CN([C@H](CC3CC3)C(=O)O)C[C@@H]2c2cccc(F)c2)CC1)c1ccc(F)cc1 (stereo partly drawn),1.5,33,–,–,–
"O=C(O)[C@@H](CC1CC1)N1CC(CN2CCC(CCC(F)(F)c3ccc(F)cc3)CC2)[C@@H](c2cccc(F)c2)C1 (single isomer, unassigned)",0.06,0.4,14,7.5,IC95 [6]: < 20 nM; bioavailability [7]: 8%; bioavailability [8]: 3.9%; IC95 [9]: 12 nM; half-life [10]: 2.4 h; Vd [11]: 3.7 L/kg; Vd [12]: 6.1 L/kg; clearance [13]: 17.6 mL/min/kg; half-life [14]: 5.6 h; Vd [15]: 2.8 L/kg; clearance [16]: 24 mL/min/kg; bioavailability [17]: 37%
O=C(O)[C@@H](CC1CCC1)N1C[C@H](CN2CCC(CCCc3ccccc3)CC2)[C@@H](c2cccc(F)c2)C1,0.5,–,32,3.4,bioavailability [4]: 24%
CC(C)[C@H](C(=O)O)N1C[C@H](CN2CCC(CCS(=O)(=O)c3ccc(F)cc3)CC2)[C@@H](c2cccc(F)c2)C1,0.9,4,–,–,–
O=C(O)[C@@H](C1CCCCC1)N1C[C@H](CN2CCC(CCC(F)(F)c3ccc(F)cc3)CC2)[C@@H](c2ccccc2)C1,0.3,4,–,–,–
O=C(O)[C@@H](CC1CCC1)N1C[C@H](CN2CCC(CCCc3ccc(C(F)(F)F)cc3)CC2)[C@@H](c2cccc(F)c2)C1,0.2,11,–,–,–
N#Cc1ccc(CCCC2CCN(C[C@H]3CN([C@H](CC4CCC4)C(=O)O)C[C@@H]3c3cccc(F)c3)CC2)cc1,0.3,0.4,47.8,1,bioavailability [4]: 7%
O=C(O)[C@@H](CC1CC1)N1C[C@H](CN2CCC(CCP(=O)(O)c3ccccc3)CC2)[C@@H](c2cccc(F)c2)C1,1000,–,–,–,–
"O=C(O)[C@@H](CC1CCC1)N1CC(CN2CCC(CCC(F)(F)c3ccc(F)cc3)CC2)[C@@H](c2cccc(F)c2)C1 (single isomer, unassigned)",0.3,1.6,18,3.1,bioavailability [7]: 12%; bioavailability [8]: 32%; IC95 [9]: 18 nM; Vd [12]: 2.2 L/kg; clearance [13]: 11 mL/min/kg; half-life [14]: 2.4 h; Vd [15]: 1.8 L/kg
O=C(O)[C@@H](CC1CC1)N1C[C@H](CN2CCC(CCC(O)c3ccc(F)cc3)CC2)[C@@H](c2cccc(F)c2)C1 (stereo partly drawn),0.4,1.2,76,0.9,bioavailability [8]: 2%; IC95 [9]: 15 nM; Vd [12]: 3.3 L/kg
O=C(O)[C@@H](C1CCCCC1)N1C[C@H](CN2CCC(CCS(=O)(=O)c3ccc(F)cc3)CC2)[C@@H](c2cccc(F)c2)C1,1.1,0.4,–,–,–
O=C(O)[C@@H](CC1CCC1)N1C[C@H](CN2CCC(CCCc3ccccc3)CC2)[C@@H](c2ccccc2)C1,–,–,–,–,IC50 [18]: < 8 nM; IC90 [19]: 1.2 nM
O=C(O)[C@@H](CC1CC1)N1C[C@H](CN2CCC(CCC(CO)c3ccc(F)cc3)CC2)[C@@H](c2cccc(F)c2)C1 (stereo partly drawn),4.8,33,–,–,–
CC(C)[C@H](C(=O)O)N1C[C@H](CN2CCC(CCSc3ccc(F)cc3)CC2)[C@@H](c2cccc(F)c2)C1,0.8,100,–,–,–
O=C(CCC1CCN(C[C@H]2CN([C@@H](C(=O)O)C3CCCCC3)C[C@@H]2c2ccccc2)CC1)c1ccc(F)cc1,1.6,100,–,–,–
O=C(O)[C@@H](CC1CCC1)N1C[C@H](CN2CCC(CCSc3ccc(F)cc3)CC2)[C@@H](c2cccc(F)c2)C1,0.1,4,–,–,–
CC(O)(CCC1CCN(C[C@H]2CN([C@H](CC3CC3)C(=O)O)C[C@@H]2c2cccc(F)c2)CC1)c1ccc(F)cc1 (stereo partly drawn),1.6,1.2,5.4,1.6,bioavailability [8]: 10%; Vd [12]: 3.9 L/kg
"O=C(O)[C@@H](CC1CCC1)N1CC(CN2CCC(CCC(F)(F)c3ccc(F)cc3)CC2)[C@@H](c2ccccc2)C1 (single isomer, unassigned)",0.2,–,–,–,–
O=C(O)[C@@H](CC1CCC1)N1C[C@H](CN2CCC(CCS(=O)(=O)c3ccc(F)cc3)CC2)[C@@H](c2cccc(F)c2)C1,–,0.4,78,0.8,IC50 [18]: 1.6 nM; bioavailability [8]: 16%; IC95 [20]: 0.2 nM; Vd [12]: 1.9 L/kg
O=C(O)[C@@H](CC1CCC1)N1C[C@H](CN2CCC(CC[S+]([O-])c3ccc(F)cc3)CC2)[C@@H](c2cccc(F)c2)C1 (stereo in doubt; 31),0.4,–,–,–,IC90 [2]: 0.8 nM
